Results on 1 molecule are retold here after US9035021B2, “Somatostatin analogues” (Novartis AG, priority 2001, dated 2015).

Structures are written as SMILES. *1 amine or outer side, *2 acyl side, *3 side chain or, on linkers, in order; H or OH if unused. Where a SMILES comes first, the peptide text is derived from it. Side-chain parts run from the residue outwards. [ ]: non-standard residue; d: D form. The star is where a group is joined. Ethylenediamine = C(CN[*:2])N[*:1]; Hyp = O=C(O)[C@@H]1C[C@@H](O)CN1; Phg = N[C@H](C(=O)O)c1ccccc1; CO = O=C([*:1])[*:2]; Bn = c1ccc(C*)cc1

The test system of data set [1] is carotid artery neointima. The data set can be described thus: Angioplasty, rat model of balloon catheter injury. The format is in vivo. Conditions: 10 μg/kg/h continuous infusion, 14 days after balloon injury. How it is done: Studies on angioplasty are done in the rat model of balloon catheter injury. Balloon catheterization is performed on day 0, essentially as described by Powell et al. (1989). Under Isofluorane anaesthesia, a Fogarty 2F catheter is introduced into the left common carotid artery to obtain a uniform de-endothelialization. The catheter is then removed, a ligature placed around the external carotid to prevent bleeding and the animals allowed to recover. 2 groups of 12 RoRo rats (400 g, approximately 24 weeks old) are used for the study: one control group and one group receiving Compound A and the rats are fully randomized. Compound A is administered by continuous infusion using minipumps at a rate of 10 μg/kg/h starting 2 days before balloon injury […] until the end of the study, 14 days after balloon injury. The rats are then anaesthetized with Isofluorane and perfused with 0.1 M phosphate buffered saline solution (PBS, pH 7.4) and then for 15 min. with 2.5% glutaraldehyde in phosphate buffer (pH 7.4). Carotid arteries are then excised, separated from surrounding tissue and immersed in 0.1 M cacodylate buffer (pH 7.4) containing 7% saccharose and incubated overnight at 4° C. […] The cross-sectional area of the media, neointima and the lumen are evaluated morphometrically by means of an image analysis system (MCID, Toronto, Canada).

Data set [2] addresses T1, hsst2 (Homo sapiens, UniProt P30874).
T1 construct: expressed in transfected cells
The data set can be described thus: Binding assay, membranes from cell lines expressing hsst2, [125I-Tyr11]-SRIF-14 radioligand. Conditions: competition binding. How it is done: (§1) The experiments are carried out in triplicate.

In data set [3] the test system is carotid artery grafts. The data set can be described thus: Carotid artery loop transplantation model. The data set is classed as in vivo, mice. The following applies: 50 μg/kg/h s.c. mini-pump, grafts harvested at 30 days, compared with non-treated animals. How it is done: Compound A has also been tested in a carotid artery loop transplantation model using B10.A (2R) (H-2h^2) mice as donor and B10.BR(H-2^k) mice as recipient. In brief, the donor carotid artery is transplanted paratopically as a loop into the recipient's carotid artery by an end-to-side anastomosis. A mini-pump is placed s.c. immediately after transplantation that delivers Compound A at a rate of 50 μg/kg/h. Carotid artery grafts are harvested at 30 days after transplantation to analyse vascular remodeling e.g. by morphometric analysis of Verhoeff elastin stained paraffin sections using a computer-assisted system.

For data set [4], the target named is T2, hsst5 (Homo sapiens, UniProt P35346).
T2 construct: expressed in transfected cells
The data set can be described thus: Binding assay, membranes from cell lines expressing hsst5, [125I-Tyr11]-SRIF-14 radioligand. Conditions: competition binding. On the procedure: as §1

For data set [5] the following is noted: diabetic monkeys.
Data set [6] deals with insulin secretion. The data set can be described thus: Similar assay for measuring the effect on insulin. Also noted: species or system rats. The following applies: rat, in vivo.
Data set [7] has as its system heart allograft. The data set can be described thus: Heterotopic mouse heart allotransplantation model. The format is in vivo.
Data set [8] has as its system blood vessel formation. Briefly: Angiogenesis test in nude mice (SiHa and MDA MB-231 cells). Conditions: dose e.g. 0.01 to 1000 μg/kg s.c. The data set is classed as in vivo. On the procedure: Compound A also has an inhibiting effect on angiogenesis, as indicated in standard tests, e.g. in nude mice. Briefly, tumor cells (0.1 to 10×10^6 in 0.1 ml) (SiHa cells and MDA MB-231 cells prepared as disclosed in Angiogenesis, Ed. by R. Steiner, P. B. Weisz and R. Langer, 1992, Switzerland) are inoculated intracutaneously. Usually two midventral sites/mouse are injected which are located distant from the main ventral skin vessels so that the background vessel count is low. Control groups receive 0.1 ml 0.02% trypan blue in PBS. 10 days following injection, anesthetized mice are sacrificed by CO2 inhalation. The skin is mounted onto a plastic ring (40 mm diameter) for evaluation by an inverted microscope (Zeiss IM) at 12.5- and 25-fold magnification. As a measure of angiogenesis, vessels are photographed and those are counted that are directly connected with the tumor. In control animals those vessels are counted that are connected to a defined area around the injection site. This area corresponds to the mean area of the dermal tumors. The latter is determined by use of a caliper according to the equation 3.14×r^2. Compound A is administered s.c. either on the day of tumor inoculation or 3 days later. Control animals are vehicle-treated.

Data set [9] is described as follows: Plasma half-life. The format is in vivo. Conditions: read-out: Elimination half-life. On the procedure:
Compound A has a beneficial plasma half-life. It has an elimination half-life between 15 and 30 hours.

Data set [10] relates to growth hormone release. Briefly: Inhibition of growth hormone (GH) release in rats. The data set is classed as in vivo. The following applies: s.c., 6 h, anaesthetized rats. How it is done:
Compound A inhibits the release of growth hormone (GH) in rats. Compound A is administered s.c. to anaesthetized rats. Blood is collected after decapitation 1 h after administration of the compound. The duration of action is estimated on the basis of the inhibition of basal GH secretion 6 h after drug treatment. Hormone levels are measured by RIA 1 h and 6 h after treatment. The ID50-value for the inhibition of the hormone secretion is determined graphically (log-probit) for each experiment and the resulting values are averaged logarithmically.

Data set [11] relates to GH. The data set can be described thus: Monkey studies, inhibition of GH. The data set is classed as in vivo.
Data set [12] deals with cultured pituitary cells. The data set can be described thus: Inhibition of GH release in vitro from cultured pituitary cells. The following applies: rat anterior pituitary cells, three hours, in the presence of 3×10^−10 M growth hormone releasing factor, RIA. The format is cell-based, rats. How it is done: For example, anterior pituitary glands from adult male rats are cut into small pieces and dispersed using 0.1% trypsin in 20 mM HEPES buffer. The dispersed cells are cultured for four days in MEM (Gibco) supplemented with 5% fetal calf serum, 5% horse serum, 1 mM NaHCO3, 2.5 nM dexamethasone, […] and 20 U/ml Pen/Strep. On the day of the experiment the attached cells are washed two times with Krebs-Ringer medium buffered with 20 mM HEPES and supplemented with 5 mM glucose and 0.2% BSA. Subsequently the cells are incubated for three hours with Compound A in the presence of 3×10^−10 M growth hormone releasing factor. The amount of growth hormone released into the medium is measured by RIA. Compound A has an IC50 of 0.4 nM in this assay.

In data set [13] the target is T3, hsst4 (Homo sapiens, UniProt P31391).
T3 construct: expressed in transfected cells
Briefly: Binding assay, membranes from cell lines expressing hsst4, [125I-Tyr11]-SRIF-14 radioligand. The following applies: competition binding. On the procedure: as §1

Data set [14] concerns the target hsst1 (Homo sapiens, UniProt P30872). Briefly: biochemical.
Description: The binding assays may be carried out as disclosed hereunder using membranes from cell lines expressing selectively and stably hsst1, hsst2, hsst3, hsst4 or hsst5, e.g. CHO or COS cells.
Membranes prepared from hsst selective cell lines, e.g. CHO or COS cells stably expressing hsst1 or hsst2 or hsst3 or hsst4 or hsst5 are incubated in triplicate in a total volume of 300 μl at 22° C. for 30 min with increasing concentrations of [^125I-Tyr^11]-SRIF-14 in 10 mmol/l Hepes buffer (pH 7.6) containing 0.5% BSA. The incubation is terminated by rapid filtration and the filters are counted in a counter. Specific binding is total binding minus non-specific binding in the presence of 1 μmol/l somatostatin-14. The experiments are carried out in triplicate. The affinity constant (KD) and number of binding sites are calculated using appropriate statistics and graphical programs.
For data set [15], the target named is growth hormone secretagogue receptors (Homo sapiens, UniProt Q92847). From the text: Such receptors are disclosed by G. Muccioli et al., J. Endocrinol. 1998, 157, 99-106, by H. Ong et al., in Endocrinology 1998, 139, 432-435 and by R. G. Smith et al., Norm. Res., 1999, 3), 1-8. The binding assay to these receptors may be carried out as disclosed in J. Endocrinol. Invest. 24: RC1-RC3, 2001.

The target in data set [16] is T4, hsst3 (Homo sapiens, UniProt P32745).
T4 construct: expressed in transfected cells
The data set can be described thus: Binding assay, membranes from cell lines expressing hsst3, [125I-Tyr11]-SRIF-14 radioligand. Conditions: competition binding. On the procedure:
as §1

The subject of data set [17] is IGF-1 plasma levels. The data set can be described thus: IGF-1 plasma levels in vivo in male rats. On the procedure: Furthermore, Compound A inhibits IGF-1 plasma levels in vivo as indicated in standard tests using male rats. Briefly, Compound A is administered by osmotic pump implanted s.c. to male rats of a Lewis strain. Blood samples are collected from the retrobulbar plexus using a short anesthesia with e.g. isoflurane.

Data set [18] concerns kidney allograft. Briefly: Chronic allograft rejection, rat kidney allograft model. The format is in vivo. The following applies: 10 μg/kg/h infusion. How it is done: Chronic Allograft Rejection
The kidney of a male DA (RT1^a) rat is orthotopically transplanted into a male Lewis (RT1^1) recipient. In total 24 animals are transplanted. All animals are treated with cyclosporine A at 7.5 mg/kg/day per os for 14 days starting on the day of transplantation, to prevent acute cellular rejection. Contralateral nephrectomy is not performed. Each experimental group treated with a distinct dose of Compound A or placebo comprises six animals. Starting 14 days after transplantation, the recipient animals are treated up to 112 days by infusion with Compound A or receive placebo. At 14 days after transplantation organ perfusion is measured by MRI. This is repeated at days 53-64 after transplantation and at the end of the experiment. The animals are then autopsied.

T4 sequence (P32745 whole entry): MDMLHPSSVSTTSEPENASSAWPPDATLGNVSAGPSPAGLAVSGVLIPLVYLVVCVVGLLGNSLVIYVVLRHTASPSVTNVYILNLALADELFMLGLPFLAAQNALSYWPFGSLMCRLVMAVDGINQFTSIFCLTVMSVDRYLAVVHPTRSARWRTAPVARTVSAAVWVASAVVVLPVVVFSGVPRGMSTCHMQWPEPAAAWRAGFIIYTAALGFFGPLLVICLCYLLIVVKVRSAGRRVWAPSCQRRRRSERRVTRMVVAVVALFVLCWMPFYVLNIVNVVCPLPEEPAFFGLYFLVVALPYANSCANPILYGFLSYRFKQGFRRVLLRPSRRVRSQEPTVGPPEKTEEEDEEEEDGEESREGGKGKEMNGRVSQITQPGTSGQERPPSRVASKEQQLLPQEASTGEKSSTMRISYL
T3 sequence (P31391 whole entry): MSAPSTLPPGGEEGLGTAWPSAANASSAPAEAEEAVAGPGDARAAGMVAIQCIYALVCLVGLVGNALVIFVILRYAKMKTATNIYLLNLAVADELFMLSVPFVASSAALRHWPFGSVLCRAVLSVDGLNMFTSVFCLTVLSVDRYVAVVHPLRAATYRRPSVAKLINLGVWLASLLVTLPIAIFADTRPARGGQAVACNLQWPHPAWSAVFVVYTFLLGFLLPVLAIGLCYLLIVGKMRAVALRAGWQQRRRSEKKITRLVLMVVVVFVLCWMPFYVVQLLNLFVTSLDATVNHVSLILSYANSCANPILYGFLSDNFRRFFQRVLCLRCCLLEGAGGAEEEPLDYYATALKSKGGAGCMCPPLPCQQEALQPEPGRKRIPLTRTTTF
Sequence of hsst1 (P30872 whole entry): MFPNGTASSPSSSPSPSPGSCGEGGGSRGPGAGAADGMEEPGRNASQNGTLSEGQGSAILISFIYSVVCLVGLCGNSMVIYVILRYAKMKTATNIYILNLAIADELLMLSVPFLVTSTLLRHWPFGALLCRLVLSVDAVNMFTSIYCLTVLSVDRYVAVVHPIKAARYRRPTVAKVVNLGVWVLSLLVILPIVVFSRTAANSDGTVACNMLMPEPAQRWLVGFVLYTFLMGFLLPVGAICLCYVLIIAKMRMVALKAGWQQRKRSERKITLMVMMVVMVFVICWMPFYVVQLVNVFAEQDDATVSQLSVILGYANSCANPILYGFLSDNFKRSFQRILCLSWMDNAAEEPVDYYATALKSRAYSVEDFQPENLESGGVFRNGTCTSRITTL
Sequence of growth hormone secretagogue receptors (Q92847 whole entry): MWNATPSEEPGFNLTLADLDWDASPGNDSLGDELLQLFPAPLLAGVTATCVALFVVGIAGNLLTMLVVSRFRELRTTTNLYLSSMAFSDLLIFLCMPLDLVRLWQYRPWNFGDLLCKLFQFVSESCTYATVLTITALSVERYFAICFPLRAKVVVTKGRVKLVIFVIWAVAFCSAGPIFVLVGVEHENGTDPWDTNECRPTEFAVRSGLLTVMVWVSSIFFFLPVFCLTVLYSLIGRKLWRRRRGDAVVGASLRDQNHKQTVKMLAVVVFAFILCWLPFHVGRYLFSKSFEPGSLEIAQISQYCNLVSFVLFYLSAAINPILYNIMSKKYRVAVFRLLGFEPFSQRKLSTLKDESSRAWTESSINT
T2 sequence (P35346 whole entry): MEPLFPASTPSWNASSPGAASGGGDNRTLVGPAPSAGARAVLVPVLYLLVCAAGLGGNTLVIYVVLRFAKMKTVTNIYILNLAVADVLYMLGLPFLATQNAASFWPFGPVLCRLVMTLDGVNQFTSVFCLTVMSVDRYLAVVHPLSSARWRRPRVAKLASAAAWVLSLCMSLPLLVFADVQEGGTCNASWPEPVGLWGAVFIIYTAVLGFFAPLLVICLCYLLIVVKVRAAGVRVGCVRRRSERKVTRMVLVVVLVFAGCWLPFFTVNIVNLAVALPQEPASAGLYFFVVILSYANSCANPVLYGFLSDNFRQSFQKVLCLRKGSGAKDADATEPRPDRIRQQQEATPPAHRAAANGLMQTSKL
T1 sequence (P30874 whole entry): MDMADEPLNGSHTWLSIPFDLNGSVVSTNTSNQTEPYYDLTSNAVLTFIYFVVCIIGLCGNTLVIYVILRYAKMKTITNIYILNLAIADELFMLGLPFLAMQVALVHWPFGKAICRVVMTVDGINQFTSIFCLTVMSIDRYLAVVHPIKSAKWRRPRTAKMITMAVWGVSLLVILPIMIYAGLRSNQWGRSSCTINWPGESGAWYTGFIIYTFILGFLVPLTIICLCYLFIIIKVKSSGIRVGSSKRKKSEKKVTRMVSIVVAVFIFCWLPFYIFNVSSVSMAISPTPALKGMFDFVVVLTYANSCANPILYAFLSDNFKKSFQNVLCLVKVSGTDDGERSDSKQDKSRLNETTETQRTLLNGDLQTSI

Usually IC50 stands for the concentration that inhibits the measured activity by half. Usually half-life stands for the time in which the quantity being followed falls by half. For `NCCCC[C@@H]1NC(=O)[C@@H](Cc2c[nH]c3ccccc23)NC(=O)[C@H](c2ccccc2)NC(=O)[C@@H]2C[C@@H](OC(=O)NCCN)CN2C(=O)[C@H](Cc2ccccc2)NC(=O)[C@H](Cc2ccc(OCc3ccccc3)cc2)NC1=O` [Compound A, cyclo[{4-(NH2—C2H4—NH—CO—O—)Pro}-Phg-DTrp-Lys-Tyr(4-Bzl)-Phe]] (cyclo([Hyp]([CO-Ethylenediamine])[Phg][dW]KY(Bn)F)), the Neointimal thickening entry in data set [1] is on record as “inhibits neointimal thickening significantly”. Besides, the IC50 in data set [2] is 1 nM; in data set [4] it was 0.16 nM; in data set [12] it was 0.4 nM; in data set [13] it was above 100 nM; in [14], 9.3 nM; in [16] it was 1.5 nM. For the same molecule, the Neointimal formation result in data set [3] is listed as “inhibits neointimal formation”. In [5], the Antidiabetic/insulin-sensitizing effect entry is recorded as “potent antidiabetic/insulin-sensitizing effect”. Further, the “Effect on insulin secretion” value in [6] is “inhibits insulin secretion”. Moreover, the “Vascular remodelling and graft infiltration” value in data set [7] is on record as “beneficial effects on vascular remodelling as well as in graft infiltration”. Further, in data set [8], the Blood vessel formation entry is “inhibits blood vessel formation”. Moreover, in data set [9], the half-life was in the range of 15 to 30 h. Further, in data set [10], the “Mean basal ID50, inhibition of GH secretion” value stood at 5.5 µg/kg. The “Inhibition of GH” value in data set [11] is “potent and efficacious inhibition of GH”. The “Displacement of 125I-Tyr-Ala-hexarelin” value in data set [15] is recorded as “displaces ^125I-Tyr-Ala-hexarelin”. For the same molecule, the “Inhibition of IGF-1 plasma levels” value in data set [17] (after 14 days of treatment with 10 μg/kg/h, osmotic pump s.c., male Lewis rats) is “more than 60%”. Moreover, the “Lowering of IGF-1 plasma levels on continuous treatment” value in data set [17] (rat recipients of aorta or kidney allografts, continuous infusion 10 μg/kg/h up to 126 days) was “significant and persistent lowering of IGF-1 plasma levels”. For the same molecule, in data set [18], the “Chronic rejection related vascular remodelling and graft infiltration” value is “reduction in chronic rejection related vascular remodelling and graft infiltration”. Further, the IGF-1 levels result in data set [18] is “marked and persistent drop of IGF-1 levels”. For the same molecule, in data set [18], the “Organ perfusion (MRI)” value is recorded as “improved organ perfusion”.
